Test results from US20240423961A1, “1H-1,2,3-TRIAZOLE-4-CARBOXYLIC ACIDS FOR TREATMENT OF HYPEROXALURIA AND KIDNEY STONES” (CANTERO THERAPEUTICS, INC., priority 2021, published 2024).

Key:
[1] = molecular target: T1, glycolate oxidase (GO) (Homo sapiens, UniProt Q9UJM8); assay: Pharmacokinetic-pharmacodynamic (PK/PD) modeling of GO inhibition; details: PK/PD modeling of Phase 1 data
T1 construct: healthy adult volunteers received single doses of Compound 1a; from tissue; host or cells: liver of healthy adult human volunteers (in vivo, Phase 1 study)
T1 sequence (Q9UJM8 1-370): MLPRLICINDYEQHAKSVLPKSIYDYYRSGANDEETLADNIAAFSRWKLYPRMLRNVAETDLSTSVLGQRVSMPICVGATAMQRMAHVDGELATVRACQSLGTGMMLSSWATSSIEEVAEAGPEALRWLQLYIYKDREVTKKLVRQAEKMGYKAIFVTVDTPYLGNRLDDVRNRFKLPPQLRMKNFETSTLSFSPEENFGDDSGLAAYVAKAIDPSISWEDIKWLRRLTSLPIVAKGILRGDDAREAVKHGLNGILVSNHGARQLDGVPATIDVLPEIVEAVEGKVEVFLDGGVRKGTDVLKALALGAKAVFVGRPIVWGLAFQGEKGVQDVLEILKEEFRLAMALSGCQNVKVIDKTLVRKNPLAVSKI
Source text: This study provides dosing and safety information for Compound 1a in patients with PH1 and recurrent stone formers with hyperoxaluria due to hepatic overproduction of oxalate. Pharmacokinetic data supports once daily administration of Compound 1a and rapid onset of action. […] Details of the study are presented in Example 2.

[2] = molecular target: T1, glycolate oxidase (GO); assay: Phase 1 SAD/MAD study: plasma glycolate as measure of target engagement; assay type: in vivo
Procedure: Pharmacodynamics: Acidified human K2-EDTA plasma samples were analyzed for oxalic acid and glycolic acid by a validated method over a range of 8.00 to 120 μM for oxalic acid and 5.00 to 625 μM for glycolic acid based on the analysis of 50 μL of sample. Human plasma containing oxalic acid, glycolic acid and internal standards, ^13C2-oxalic acid and D2-glycolic acid, was derivatized after protein precipitation then extracted using liquid-liquid extraction and analyzed by a Sciex API 4000 LC-MS-MS equipped with an HPLC column. The peak area of the m/z 224.1→152.1 oxalic acid product ion was measured against the peak area of the m/z 226.1→152.1 13C2-oxalic acid internal standard product ion. The peak area of the m/z 210.1→107.0 glycolic acid product ion was measured against the peak area of the m/z 212.1→107.0 D2-glycolic acid internal standard product ion. Quantitation was performed using a weighted 1/x2 linear least squares regression analysis generated from calibration standards prepared on the day of extraction.
Pharmacodynamics of Compound 1a: As a measure of target engagement, plasma glycolate levels were assessed in Part A and Part B. In Part A, healthy adult volunteers received single doses of Compound 1a at 40, 120, 360, 1,000, 2,000, and 3,000 mg with increases in plasma glycolate observed (FIG. 3A). At all doses, mean maximal plasma glycolate concentrations exceeded the upper limit of normal (ULN) of 14 μM, reaching a mean maximum concentration of >90 μM at doses above 1,000 mg, which was sustained for 24 hours. Median time to recovery (plasma glycolate less than or equal to ULN) after a single dose was less than 72 hours.
In Part B, healthy adult volunteers received multiple doses of Compound 1a at 75 mg qd, 125 mg q12 h, 500 mg q12 h, 500 mg qd, 750 mg qd, and 1000 mg qd. As with Part A, mean maximal plasma glycolate concentrations exceeded the ULN at all doses on day 1 to a range of 50 to 100 μM and further increased on day 7 to a range of 100 to 200 μM.

[3] = Part A, single doses above 1,000 mg

SMILES: O.O=C([O-])c1nn[nH]c1Oc1ccc(-c2ccc(C3CC(F)(F)C3)cc2)cc1.[Na+] [Compound 1a, sodium 5-((4′-(3,3-difluorocyclobutyl)-[1,1′-biphenyl]-4-yl)oxy)-1H-1,2,3-triazole-4-carboxylate monohydrate]
- inhibition of GO [1]: up to 97%
- time to inhibition of glycolate oxidase (GO) with increased plasma glycolate concentrations ([2]; FIG. 3 legend): ≤ 2 h
- mean maximal plasma glycolate concentrations (exceeded ULN) ([2]; Part A, all single doses 40 to 3,000 mg): > 14 µM
- duration for which mean maximum plasma glycolate concentration was sustained [2, 3]: 24 h
- mean maximum plasma glycolate concentration [2, 3]: > 90 µM
- levels of plasma glycolate compared with lumasiran ([2]; Part B, all doses): significantly higher than those observed with lumasiran at 3 mg/kg or 6 mg/kg
- Median time to recovery (plasma glycolate less than or equal to ULN) ([2]; after a single dose): less than 72 hours
- plasma glycolate concentrations at steady state ([2]; steady state, multiple doses): comparable to those measured in case reports of individuals with germline HAO1 knockout
